In patent US12583861B2, “Derivatives of imidazo[4,5-d]pyridazine, their preparation and their therapeutic application” (SANOFI, priority 2021, dated 2026) one finds EC50 and activation data, which are given here for 16 compounds.

Counter-ions that a name gives are not always drawn.

Holding throughout (format): cell-based
In one assay the test system is IFN-α2a. Kind of assay: IFN-α2a cytokine activation in human PBMC (MSD assay). Particulars: Homo sapiens, PBMC, 24 h. The method, then:
(§1) The other below tests involving measuring the in vitro activity of some compounds of the disclosure on cytokines IFN-α2a, IL-6, IL29 and TNF-α were carried out using human PBMC (PBMCs).
(§2) The activity described below, with respect to TLR7, TLR8, IFN-α2a, IL-6, IL29 and TNF-α, is given by the half maximal effective concentration (EC50), which corresponds to the concentration required to obtain a 50% of the activation. The lower the EC50, the less the concentration of the compound is required to produce 50% of maximum activation and the higher the potency.
(§3) In Vitro Assay to Determine IFN-α2a, IL-6, IL29 and TNF-α Cytokine Activation:
(§4) Peripheral blood mononuclear cells were isolated by Ficoll density gradient centrifugation from peripheral blood samples obtained from healthy donors (EFS). Isolated PBMCs are washed twice with PBS and resuspended in RPMI-1640 medium supplement with 10% fetal bovine serum (FBS) at 5.10^5 cells/well in a 96-well plate. The cells were then incubated with the compounds to test at various doses (20 μM to 4.8.10-6 μM final) for 24 h at 37° C., 5% CO2. After 24 h treatment, the plates are centrifuged and the supernatant were collected and assayed for cytokines IFN-α2a, IL-6, IL29 and TNF-α using the Meso Scale Discovery (MSD) assay platform according to the manufacturer's instructions. Briefly, 25 μL of cell culture supernatants were incubated for 1 h at Room Temperature (RT) in custom Multi-Spot 96-well plates prior coated with capture antibodies. After washing, SULFO-TAG® labeled detection antibodies were added to each of the wells and incubated for 1 h RT before adding a read buffer.

The subject of a further assay is IL-6. Kind of assay: IL-6 cytokine activation in human PBMC (MSD assay). Particulars: Homo sapiens, PBMC, 24 h, read-out: IL6 EC50. How it is done:
as §1, §2, §3, §4

Another assay has as its system IL29. The assay can be described thus: IL29 cytokine activation in human PBMC (MSD assay). Particulars: Homo sapiens, PBMC, 24 h. How it is done:
as §1, §2, §3, §4

A further assay relates to TNF-α. Kind of assay: TNF-α cytokine activation in human PBMC (MSD assay). Particulars: Homo sapiens, PBMC, 24 h. The method, then: as §1, §2, §3, §4
Another assay addresses T1, human TLR7 (Homo sapiens, UniProt Q9NYK1).
T1 construct: host or cells: HEK293 (HEK-Blue hTLR7)
T1 sequence (Q9NYK1 27-1049): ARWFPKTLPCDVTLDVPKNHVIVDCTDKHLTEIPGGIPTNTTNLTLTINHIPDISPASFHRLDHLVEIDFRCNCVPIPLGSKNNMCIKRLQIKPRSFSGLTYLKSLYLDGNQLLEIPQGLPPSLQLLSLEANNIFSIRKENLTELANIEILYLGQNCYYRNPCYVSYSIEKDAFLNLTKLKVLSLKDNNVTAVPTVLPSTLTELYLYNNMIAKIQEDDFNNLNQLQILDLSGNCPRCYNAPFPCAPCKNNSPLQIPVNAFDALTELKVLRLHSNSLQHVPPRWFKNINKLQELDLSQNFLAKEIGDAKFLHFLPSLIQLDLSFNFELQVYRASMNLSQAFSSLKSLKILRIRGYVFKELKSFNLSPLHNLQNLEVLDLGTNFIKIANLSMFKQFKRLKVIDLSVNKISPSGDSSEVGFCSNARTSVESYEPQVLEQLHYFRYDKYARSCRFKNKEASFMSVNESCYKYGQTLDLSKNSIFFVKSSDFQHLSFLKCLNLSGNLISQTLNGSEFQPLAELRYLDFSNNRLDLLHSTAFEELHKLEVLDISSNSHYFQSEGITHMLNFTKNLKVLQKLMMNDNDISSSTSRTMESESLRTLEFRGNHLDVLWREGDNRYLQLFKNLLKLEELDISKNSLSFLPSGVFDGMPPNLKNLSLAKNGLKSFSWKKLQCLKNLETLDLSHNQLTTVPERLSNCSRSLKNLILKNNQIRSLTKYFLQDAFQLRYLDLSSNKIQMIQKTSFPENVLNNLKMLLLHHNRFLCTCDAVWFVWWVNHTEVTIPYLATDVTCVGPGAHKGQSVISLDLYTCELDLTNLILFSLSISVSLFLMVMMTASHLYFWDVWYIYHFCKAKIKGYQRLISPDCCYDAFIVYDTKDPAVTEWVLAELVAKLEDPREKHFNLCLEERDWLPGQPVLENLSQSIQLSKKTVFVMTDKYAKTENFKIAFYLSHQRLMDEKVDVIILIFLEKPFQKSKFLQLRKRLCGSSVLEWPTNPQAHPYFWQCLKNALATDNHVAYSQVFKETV
Kind of assay: HEK-Blue hTLR7 reporter cell assay (SEAP, NF-kB/AP-1) for stimulation of human TLR7. Particulars: HEK-Blue hTLR7 cells; for EC50: 24 h incubation, SEAP readout, read-out: TLR7_EC50; for activation at 20 µM: 24 h, at 20000 nM. The gist of the method:
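HEK293 cells expressing hTLR7 with NF-κB/AP-1-driven SEAP reporter, seeded 3.10E4 cells/well, pre-incubated 18–24 h, then exposed to 3-fold compound dilutions (0.01–20 μM) for 24 h at 37 °C. Supernatant SEAP read with QUANTI-Blue; EC50 as concentration giving 50% activation.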

Another assay has as its target T2, human TLR8 (Homo sapiens, UniProt Q9NR97).
T2 construct: host or cells: HEK293 (HEK-Blue hTLR8)
T2 sequence (Q9NR97 27-1041): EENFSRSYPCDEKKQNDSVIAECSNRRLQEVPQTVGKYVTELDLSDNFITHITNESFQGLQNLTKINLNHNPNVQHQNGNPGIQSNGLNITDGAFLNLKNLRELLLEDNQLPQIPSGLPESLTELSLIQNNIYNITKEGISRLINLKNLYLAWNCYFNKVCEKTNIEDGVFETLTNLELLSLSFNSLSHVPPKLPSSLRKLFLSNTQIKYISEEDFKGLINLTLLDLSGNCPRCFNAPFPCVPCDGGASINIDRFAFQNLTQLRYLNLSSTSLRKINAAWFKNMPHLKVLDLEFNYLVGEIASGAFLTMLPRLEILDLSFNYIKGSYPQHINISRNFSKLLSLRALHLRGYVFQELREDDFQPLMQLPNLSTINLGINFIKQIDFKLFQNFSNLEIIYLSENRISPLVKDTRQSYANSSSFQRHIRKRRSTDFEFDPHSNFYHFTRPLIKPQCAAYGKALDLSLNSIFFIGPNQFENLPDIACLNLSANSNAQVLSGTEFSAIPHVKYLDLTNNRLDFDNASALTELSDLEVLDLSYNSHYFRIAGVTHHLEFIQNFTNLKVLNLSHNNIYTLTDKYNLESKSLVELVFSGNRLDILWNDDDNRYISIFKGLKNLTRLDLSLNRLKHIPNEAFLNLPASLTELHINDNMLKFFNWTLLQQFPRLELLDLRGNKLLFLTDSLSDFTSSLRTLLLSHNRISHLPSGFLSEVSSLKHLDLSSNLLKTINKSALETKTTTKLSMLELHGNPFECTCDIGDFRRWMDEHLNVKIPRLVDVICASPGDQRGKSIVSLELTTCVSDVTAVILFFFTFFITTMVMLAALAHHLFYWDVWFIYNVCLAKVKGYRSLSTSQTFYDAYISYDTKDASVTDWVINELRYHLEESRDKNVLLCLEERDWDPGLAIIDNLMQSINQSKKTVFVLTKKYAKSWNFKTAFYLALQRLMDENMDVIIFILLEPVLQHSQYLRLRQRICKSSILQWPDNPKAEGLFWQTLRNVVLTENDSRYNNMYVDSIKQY
The assay can be described thus: HEK-Blue hTLR8 reporter cell assay (SEAP, NF-kB/AP-1) for stimulation of human TLR8. Particulars: HEK-Blue hTLR8 cells; for EC50: 24 h incubation, SEAP readout, read-out: TLR8_EC50; for activation at 20 µM: 24 h, at 20000 nM. The gist of the method: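 HEK293 cells carrying hTLR8 and a SEAP reporter driven by NF-κB/AP-1 sites were seeded at 3.10E4 cells/well and held 18 to 24 h at 37° C., 5% CO2 before compound addition. Supernatant SEAP measured with QUANTI-Blue™.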

In the case of `CCCCc1nc2c(N)nnc(N(C)Cc3ccc(CN(C)C)cc3)c2n1C` [Compound 43, 2-butyl-N7-(4-((dimethylamino)methyl)benzyl)-N7,1-dimethyl-1H-imidazo[4,5-d]pyridazine-4,7-diamine], the EC50 was determined as 22 nM with IFN-α2a, 3 nM in the assay with IL-6, 15 nM in the assay on IL29 and 21 nM in the assay with TNF-α.
With `CCCCc1nc2c(N)nnc(OC(C)C)c2n1CC1CCNCC1` [Compound 165, 2-butyl-7-isopropoxy-1-(piperidin-4-ylmethyl)-1H-imidazo[4,5-d]pyridazin-4-amine], the EC50 is 1570 nM at human TLR7 and over 20000 nM on human TLR8.
`CCCCc1nc2c(N)nnc(O[C@H]3CCOC3)c2n1Cc1ccc(OC)cc1` [Compound 54, (S)-2-butyl-1-(4-methoxybenzyl)-7-((tetrahydrofuran-3-yl)oxy)-1H-imidazo[4,5-d]pyridazin-4-amine]: the figures for the EC50 at human TLR7 and on human TLR8 were 610 nM and over 20000 nM, respectively.
With `CCCCc1nc2c(N)nnc(NC(C)C)c2[nH]1` [Compound 98, 2-butyl-N7-isopropyl-1H-imidazo[4,5-d]pyridazine-4,7-diamine], the activation at 20 µM came out at 8% at human TLR7 and 6% on human TLR8.
In the same order, the values of `CCCCc1nc2c(N)nnc(NCc3ccc(CN4CCN(C)CC4)cc3)c2n1C` [Compound 91, 2-butyl-1-methyl-N7-(4-((4-methylpiperazin-1-yl)methyl)benzyl)-1H-imidazo[4,5-d]pyridazine-4,7-diamine] are 45% and 10%.
Regarding `CCCCc1nc2c(N)nnc(OC)c2n1Cc1ccc(OC)cc1` [Compound 50, 2-butyl-7-methoxy-1-(4-methoxybenzyl)-1H-imidazo[4,5-d]pyridazin-4-amine], the EC50 was 269 nM on human TLR7 and over 20000 nM on human TLR8.
Taken in the same sequence, the figures for `CCCCC(=O)NCc1ccc(Cn2c(CCCC)nc3c(N)nnc(OC(C)C)c32)cc1` [Compound 30, N-(4-((4-amino-2-butyl-7-isopropoxy-1H-imidazo[4,5-d]pyridazin-1-yl)methyl)benzyl)pentanamide] were 161 nM and over 20000 nM.
In the case of `CCCCc1nc2c(N)nnc(OCc3ccccc3)c2n1Cc1ccc(OC)cc1` [Compound 52, 7-(benzyloxy)-2-butyl-1-(4-methoxybenzyl)-1H-imidazo[4,5-d]pyridazin-4-amine], the EC50 at human TLR7 is 551 nM; at human TLR8 it was over 20000 nM.
`CCCCc1nc2c(N)nnc(OC(C)C)c2n1Cc1ccc(CN)cn1` [Compound 26, 1-((5-(aminomethyl)pyridin-2-yl)methyl)-2-butyl-7-isopropoxy-1H-imidazo[4,5-d]pyridazin-4-amine]: the EC50 was 144 nM at human TLR7 and over 20000 nM at human TLR8.
Regarding `CCCCc1nc2c(N)nnc(C3CCNC3)c2n1Cc1ccc(CN)cc1` (stereo not shown) [Compound 145, 1-[[4-(aminomethyl)phenyl]methyl]-2-butyl-7-pyrrolidin-3-yl-imidazo[4,5-d]pyridazin-4-amine], the activation at 20 µM on human TLR7 turned out to be 2.2%; on human TLR8, 11.7%.
With `CCCCc1nc2c(N)nnc(OC(C)C)c2n1CC(C)(CO)CO` [Compound 156, 2-[(7-amino-2-butyl-4-isopropoxy-imidazo[4,5-d]pyridazin-3-yl)methyl]-2-methyl-propane-1,3-diol; hydrochloride], the EC50 at human TLR7 amounted to 75 nM; at human TLR8, 5 nM.
With `CCCCc1nc2c(N)nnc(OC(C)C)c2n1Cc1cccc(CNC2CS(=O)(=O)C2)c1` [Compound 129, 3-((3-((4-amino-2-butyl-7-isopropoxy-1H-imidazo[4,5-d]pyridazin-1-yl)methyl)benzyl)amino)thietane 1,1-dioxide], the EC50 is 1550 nM on human TLR7 and 6260 nM at human TLR8.
In the same order, the values of `CCCCc1nc2c(N)nnc(OC(C)C)c2n1CCCCCN` [Compound 77, 1-(5-aminopentyl)-2-butyl-7-isopropoxy-1H-imidazo[4,5-d]pyridazin-4-amine] are 390 nM and over 20000 nM.
As for `CCCCc1nc2c(N)nnc(OC(C)C)c2n1Cc1ccc(CNC)cc1` [Compound 118, 2-butyl-7-isopropoxy-1-(4-((methylamino)methyl)benzyl)-1H-imidazo[4,5-d]pyridazin-4-amine], the EC50 on human TLR7 amounted to 11 nM; at human TLR8, 1490 nM.
Turning to `CCCCc1nc2c(N)nnc(N(C)Cc3ccc(C#N)cc3)c2n1C` [Compound 45, 4-(((4-amino-2-butyl-1-methyl-1H-imidazo[4,5-d]pyridazin-7-yl)(methyl)amino)methyl)benzonitrile], the EC50 at human TLR7 is over 20000 nM; on human TLR8 it was 9420 nM.
For `CCCCc1nc2c(N)nnc(OC(C)C)c2n1CCC1CCNCC1` [Compound 78, 2-butyl-7-isopropoxy-1-(2-(piperidin-4-yl)ethyl)-1H-imidazo[4,5-d]pyridazin-4-amine], the EC50 at human TLR7 was 7740 nM; on human TLR8 it was over 20000 nM.
